According to patent US12568972B2, “Pyridazinol compounds and derivatives, preparation methods, herbicidal compositions and applications thereof” (Qingdao Kingagroot Chemical Compound Co., Ltd., priority 2018, dated 2026):

Key:
Test in all cases: Post-emergence test, weed control effect
Assay type in all cases: in vivo
Conditions in all cases: after 3 weeks
Chenopodiaceae = tested on: Chenopodiaceae
Summary of the method: (§1)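 Activity is expressed as a level from 0 (no effect) to 10 (plant dead), each step matching a further 10% fresh-weight inhibition, assessed 3 weeks post-treatment. Treatment: spray at 2-3 leaf stage of pot-grown plants, compound in acetone, Tween-80 and water with 80% vegetable oil methyl ester synergist at 1500 g/ha.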

Amaranthus retroflexus = tested on: Amaranthus retroflexus
Summary of the method: as §1

Rorippa indica = tested on: Rorippa indica
Summary of the method: as §1

Veronica polita = tested on: Veronica polita
Summary of the method: as §1

CCCCCCCOC(=O)Oc1cc(C(F)(F)F)nnc1-c1ccc(Cl)c(Cl)c1Cl [Compound 1-38]
10: weed control effect, Chenopodiaceae (activity level) (Chenopodiaceae; Dose 3000 g/ha) | weed control effect, Amaranthus retroflexus (activity level) (Amaranthus retroflexus; Dose 3000 g/ha) | weed control effect, Rorippa indica (activity level) (Rorippa indica; Dose 3000 g/ha) | weed control effect, Veronica polita (activity level) (Veronica polita; Dose 3000 g/ha)

CCc1cc(-c2nnc(C(F)(F)F)cc2O)n(C)n1 [Compound 780]
10: weed control effect (activity level), Chenopodiaceae (Chenopodiaceae; Dose 3000 g/ha) | weed control effect (activity level), Amaranthus retroflexus (Amaranthus retroflexus; Dose 3000 g/ha) | weed control effect (activity level), Rorippa indica (Rorippa indica; Dose 3000 g/ha) | weed control effect (activity level), Veronica polita (Veronica polita; Dose 3000 g/ha)

Oc1cc(C(F)(F)F)nnc1-c1cnc(Cl)cc1F [Compound 1007]
10: weed control effect (activity level), Chenopodiaceae (Chenopodiaceae; Dose 3000 g/ha) | weed control effect (activity level), Amaranthus retroflexus (Amaranthus retroflexus; Dose 3000 g/ha) | weed control effect (activity level), Rorippa indica (Rorippa indica; Dose 3000 g/ha) | weed control effect (activity level), Veronica polita (Veronica polita; Dose 3000 g/ha)

Cn1nc(C2CC2)cc1-c1nnc(C(F)(F)F)cc1O [Compound 781]
10: weed control effect (activity level), Chenopodiaceae (Chenopodiaceae; Dose 3000 g/ha) | weed control effect (activity level), Amaranthus retroflexus (Amaranthus retroflexus; Dose 3000 g/ha) | weed control effect (activity level), Rorippa indica (Rorippa indica; Dose 3000 g/ha) | weed control effect (activity level), Veronica polita (Veronica polita; Dose 3000 g/ha)

Oc1cc(C(F)(F)F)nnc1-c1ccc(F)nc1Cl [Compound 1003]
10: weed control effect (activity level), Chenopodiaceae (Chenopodiaceae; Dose 3000 g/ha) | weed control effect (activity level), Amaranthus retroflexus (Amaranthus retroflexus; Dose 3000 g/ha) | weed control effect (activity level), Rorippa indica (Rorippa indica; Dose 3000 g/ha) | weed control effect (activity level), Veronica polita (Veronica polita; Dose 3000 g/ha)

Oc1cc(C(F)(F)F)nnc1-c1cc(F)cc(Cl)c1 [Compound 46]
10: weed control effect (activity level), Chenopodiaceae (Chenopodiaceae; dose 1000 g/ha) | weed control effect (activity level), Amaranthus retroflexus (Amaranthus retroflexus; dose 1000 g/ha) | weed control effect (activity level), Rorippa indica (Rorippa indica; dose 1000 g/ha) | weed control effect (activity level), Veronica polita (Veronica polita; dose 1000 g/ha)

Oc1cc(C(F)(F)F)nnc1-c1ccc(F)cc1F [Compound 732]
10: weed control effect (activity level), Chenopodiaceae (Chenopodiaceae; dose 1000 g/ha) | weed control effect (activity level), Amaranthus retroflexus (Amaranthus retroflexus; dose 1000 g/ha) | weed control effect (activity level), Rorippa indica (Rorippa indica; dose 1000 g/ha) | weed control effect (activity level), Veronica polita (Veronica polita; dose 1000 g/ha)

CCCCOC(=S)Oc1cc(C(F)(F)F)nnc1-c1ccc(F)c(F)c1 [Compound 1-157]
10: weed control effect, Chenopodiaceae (activity level) (Chenopodiaceae; Dose 3000 g/ha) | weed control effect, Amaranthus retroflexus (activity level) (Amaranthus retroflexus; Dose 3000 g/ha) | weed control effect, Rorippa indica (activity level) (Rorippa indica; Dose 3000 g/ha) | weed control effect, Veronica polita (activity level) (Veronica polita; Dose 3000 g/ha)

O=C(Oc1cc(C(F)(F)F)nnc1-c1ccc(Cl)cc1)c1cc(Cl)nc(Cl)n1 [Compound 1-111]
10: weed control effect, Chenopodiaceae (activity level) (Chenopodiaceae; Dose 3000 g/ha) | weed control effect, Amaranthus retroflexus (activity level) (Amaranthus retroflexus; Dose 3000 g/ha) | weed control effect, Rorippa indica (activity level) (Rorippa indica; Dose 3000 g/ha) | weed control effect, Veronica polita (activity level) (Veronica polita; Dose 3000 g/ha)

CCc1cccc(-c2nnc(C(F)(F)F)cc2OS(=O)(=O)c2cc3ccccc3s2)c1 [Compound 1-149]
10: weed control effect, Chenopodiaceae (activity level) (Chenopodiaceae; Dose 3000 g/ha) | weed control effect, Amaranthus retroflexus (activity level) (Amaranthus retroflexus; Dose 3000 g/ha) | weed control effect, Rorippa indica (activity level) (Rorippa indica; Dose 3000 g/ha) | weed control effect, Veronica polita (activity level) (Veronica polita; Dose 3000 g/ha)

Cc1cccc(C2CC2)c1-c1nnc(C(F)(F)F)cc1O [Compound 735]
10: weed control effect (activity level), Chenopodiaceae (Chenopodiaceae; dose 1000 g/ha) | weed control effect (activity level), Amaranthus retroflexus (Amaranthus retroflexus; dose 1000 g/ha) | weed control effect (activity level), Rorippa indica (Rorippa indica; dose 1000 g/ha) | weed control effect (activity level), Veronica polita (Veronica polita; dose 1000 g/ha)

Oc1cc(C(F)(F)F)nnc1-c1ccc(Cl)c(Cl)c1 [Compound 38]
10: weed control effect (activity level), Chenopodiaceae (Chenopodiaceae; dose 1000 g/ha) | weed control effect (activity level), Amaranthus retroflexus (Amaranthus retroflexus; dose 1000 g/ha) | weed control effect (activity level), Rorippa indica (Rorippa indica; dose 1000 g/ha) | weed control effect (activity level), Veronica polita (Veronica polita; dose 1000 g/ha)

CCn1nc(C2CC2)cc1-c1nnc(C(F)(F)F)cc1O [Compound 827]
10: weed control effect (activity level), Chenopodiaceae (Chenopodiaceae; Dose 3000 g/ha) | weed control effect (activity level), Amaranthus retroflexus (Amaranthus retroflexus; Dose 3000 g/ha) | weed control effect (activity level), Rorippa indica (Rorippa indica; Dose 3000 g/ha) | weed control effect (activity level), Veronica polita (Veronica polita; Dose 3000 g/ha)

Oc1cc(C(F)(F)F)nnc1-c1cccc2cnccc12 [Compound 636]
10: weed control effect (activity level), Chenopodiaceae (Chenopodiaceae; Dose 3000 g/ha) | weed control effect (activity level), Amaranthus retroflexus (Amaranthus retroflexus; Dose 3000 g/ha) | weed control effect (activity level), Rorippa indica (Rorippa indica; Dose 3000 g/ha) | weed control effect (activity level), Veronica polita (Veronica polita; Dose 3000 g/ha)

Oc1cc(C(F)(F)F)nnc1C1C=C2C=CC=CC2N1 (stereo not drawn) [Compound 877]
10: weed control effect (activity level), Chenopodiaceae (Chenopodiaceae; Dose 3000 g/ha) | weed control effect (activity level), Amaranthus retroflexus (Amaranthus retroflexus; Dose 3000 g/ha) | weed control effect (activity level), Rorippa indica (Rorippa indica; Dose 3000 g/ha) | weed control effect (activity level), Veronica polita (Veronica polita; Dose 3000 g/ha)

Oc1cc(C(F)(F)F)nnc1-c1cccc(F)c1 [Compound 736]
10: weed control effect (activity level), Chenopodiaceae (Chenopodiaceae; dose 1000 g/ha) | weed control effect (activity level), Amaranthus retroflexus (Amaranthus retroflexus; dose 1000 g/ha) | weed control effect (activity level), Rorippa indica (Rorippa indica; dose 1000 g/ha) | weed control effect (activity level), Veronica polita (Veronica polita; dose 1000 g/ha)

Oc1cc(C(F)(F)F)nnc1-c1cc(Cl)cnc1Cl [Compound 992]
10: weed control effect (activity level), Chenopodiaceae (Chenopodiaceae; Dose 3000 g/ha) | weed control effect (activity level), Amaranthus retroflexus (Amaranthus retroflexus; Dose 3000 g/ha) | weed control effect (activity level), Rorippa indica (Rorippa indica; Dose 3000 g/ha) | weed control effect (activity level), Veronica polita (Veronica polita; Dose 3000 g/ha)

CC/C(C)=N\Oc1cc(C(F)(F)F)nnc1-c1ccc(C)cc1 [Compound 1-170]
10: weed control effect, Chenopodiaceae (activity level) (Chenopodiaceae; Dose 3000 g/ha) | weed control effect, Amaranthus retroflexus (activity level) (Amaranthus retroflexus; Dose 3000 g/ha) | weed control effect, Rorippa indica (activity level) (Rorippa indica; Dose 3000 g/ha) | weed control effect, Veronica polita (activity level) (Veronica polita; Dose 3000 g/ha)
